In experiment [1] the test system is locally advanced or metastatic pancreatic cancer. Particulars: cited from earlier work.
The test system is the same in experiment [2]. Put plainly: TH-CR-404 Phase II clinical trial in pancreatic cancer (NCT01144455). Type of experiment: in vivo, human. As for the experimental part: In the TH-CR-404 Phase II clinical trial in pancreatic cancer (NCT01144455), pancreatic cancer patients with locally advanced or metastatic disease were randomized in three study arms to receive Gemcitabine (Gem) therapy or the combination of Gemcitabine with one of 2 dose levels of TH-302. TH-302 was administered either at 240 or 340 mg/m^2 by intravenous infusion. A total of 214 patients were enrolled (Gemcitabine arm, n=69; Gemcitabine+TH-302 240 mg/m^2, n=71; Gemcitabine+TH-302 340 mg/m^2, n=74).
To search for potentially predictive serum biomarkers of the clinical benefit derived from TH-302 hypoxia-activated therapy, an initial search of candidate biomarkers was conducted from the trial pre-treatment serum samples using a multiplexed bead-based immunoassay (AssayGate, Inc., Ijamsville, Md.). When measuring serum samples for ENO1 and ENO2 protein levels by means of this bead-based, suspension immunoassay format for ENO1, the limit of detection of the assay was 1.8 ng/ml. For ENO2, the assay sensitivity was 1.2 ng/ml.
Following the identification of ENO2 as a potentially predictive biomarker for the clinical benefit derived from TH-302, the levels of ENO1 were tested in the same patient serum samples (Harris A L, 2002, Nat Rev Cancer 2: 38-47; Semenza G L, 2003, Nat Rev Cancer 3: 721-732). High levels of ENO1 were associated with improved PFS and OS in Gemcitabine+TH-302 340 mg/m^2 patient samples in this trial (FIG. 2). These associations were shown using the ENO1 cut-off value of the assay sensitivity limit (1.8 ng/ml) (FIGS. 2A and 2B).

In experiment [3] the test system is panel of 11 cancer cell-line derived models. As to conditions: tumor xenografts, variety of tumor types; cited from earlier work.

As to `Cn1c(COP(=O)(NCCBr)NCCBr)cnc1[N+](=O)[O-]` [TH-302, (2-bromoethyl)({[(2-bromoethyl)amino][(2-nitro-3-methylimidazol-4-yl)methoxy]phosphoryl})amine], the “progression free survival (PFS) hazard ratio (HR)” value in experiment [1] (Gemcitabine+TH-302 340 mg/m^2 (high-dose group) vs Gemcitabine alone, intravenous infusion, p=0.008) was 0.58. Also, in experiment [1] (Gemcitabine+TH-302 groups (240 or 340 mg/m^2) compared to Gemcitabine alone), the “primary endpoint: progression free survival (PFS)” value is given as “improved progression free survival”. Further, the “difference between treatment groups of median PFS time among patients with high ENO2” value in experiment [2] (Gem vs Gem+TH-302 340 mg/m^2, ENO2 median cut-off 20.3913 ng/ml, FIG. 1A) was “more pronounced”. Also, the “difference between treatment groups of median OS time among patients with high ENO2” value in experiment [2] (Gem vs Gem+TH-302 340 mg/m^2, ENO2 median cut-off 20.3913 ng/ml, FIG. 1B) is “more pronounced”. Also, the “OS in patients with high serum ENO1 levels” value in experiment [2] (Gemcitabine+TH-302 340 mg/m^2, ENO1 cut-off 1.8 ng/ml (more pronounced at 2.3 and 3.2 ng/ml), FIG. 2B-2D) is recorded as “improved”. The “PFS in patients with high serum ENO1 levels” value in experiment [2] (Gemcitabine+TH-302 340 mg/m^2, ENO1 cut-off 1.8 ng/ml, FIG. 2A) was “improved”. In addition, the “monotherapy efficacy (tumor growth delay)” value in experiment [3] is recorded as “modest”.

Values taken from patent US10760130B2, “Predictive biomarker for hypoxia-activated prodrug therapy” (MOLECULAR TEMPLATES, INC., priority 2014, dated 2020).
